{
  "source": "PubChem BioAssay (NCI)",
  "experiment_in_all_cases": "inhibition of tumour cell growth, NCI panel, 48 h",
  "key": {"[1]": {"tested_on": "786-0 renal"}, "[2]": {"tested_on": "A498 renal"}, "[3]": {"tested_on": "A549 NSCLC"}, "[4]": {"tested_on": "ACHN renal"}, "[5]": {"tested_on": "BT-549 breast"}, "[6]": {"tested_on": "CAKI-1 renal"}, "[7]": {"tested_on": "COLO 205 colon"}, "[8]": {"tested_on": "DU-145 prostate"}, "[9]": {"tested_on": "EKVX NSCLC"}, "[10]": {"tested_on": "HCT-116 colon"}, "[11]": {"tested_on": "HCT-15 colon"}, "[12]": {"tested_on": "HL-60(TB) leukemia"}, "[13]": {"tested_on": "HOP-62 NSCLC"}, "[14]": {"tested_on": "HS 578T breast"}, "[15]": {"tested_on": "HT29 colon"}, "[16]": {"tested_on": "IGROV1 ovarian"}, "[17]": {"tested_on": "K-562 leukemia"}, "[18]": {"tested_on": "KM12 colon"}, "[19]": {"tested_on": "LOX IMVI melanoma"}, "[20]": {"tested_on": "MCF7 breast"}, "[21]": {"tested_on": "MDA-MB-231 breast"}, "[22]": {"tested_on": "MDA-MB-435"}, "[23]": {"tested_on": "MOLT-4 leukemia"}, "[24]": {"tested_on": "NCI-H226 lung"}, "[25]": {"tested_on": "NCI-H23 lung"}, "[26]": {"tested_on": "NCI-H460 lung"}, "[27]": {"tested_on": "NCI-H522 lung"}, "[28]": {"tested_on": "NCI/ADR-RES ovarian"}, "[29]": {"tested_on": "OVCAR-3 ovarian"}, "[30]": {"tested_on": "OVCAR-5 ovarian"}, "[31]": {"tested_on": "OVCAR-8 ovarian"}, "[32]": {"tested_on": "PC-3 prostate"}, "[33]": {"tested_on": "RPMI-8226 leukemia"}, "[34]": {"tested_on": "RXF 393 renal"}, "[35]": {"tested_on": "SF-268 CNS"}, "[36]": {"tested_on": "SF-295 CNS"}, "[37]": {"tested_on": "SF-539 CNS"}, "[38]": {"tested_on": "SK-MEL-2 melanoma"}, "[39]": {"tested_on": "SK-MEL-28 melanoma"}, "[40]": {"tested_on": "SK-MEL-5 melanoma"}, "[41]": {"tested_on": "SN12C renal"}, "[42]": {"tested_on": "SNB-19 CNS"}, "[43]": {"tested_on": "SNB-75 CNS"}, "[44]": {"tested_on": "SR leukemia"}, "[45]": {"tested_on": "SW-620 colon"}, "[46]": {"tested_on": "TK-10 renal"}, "[47]": {"tested_on": "U251 CNS"}, "[48]": {"tested_on": "UACC-62 melanoma"}, "[49]": {"tested_on": "UO-31 renal"}},
  "note": "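In this assay, cells in 96-well plates receive the compound at five concentrations for 48 hours. Endpoints are linearly interpolated between the surrounding concentrations. At the GI50, growth is halved. TGI is the concentration that stops growth completely.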",
  "data": [
    {"smiles": "COc1ccc(/C=C/C(=O)c2ccc(Cl)cc2Cl)cc1", "values": [
      {"measurement": "GI50", "setting": "[1]", "value": 13.9, "unit": "µM"},
      {"measurement": "TGI", "setting": "[1]", "value": 30.7, "unit": "µM"},
      {"measurement": "GI50", "setting": "[2]", "value": 10.7, "unit": "µM"},
      {"measurement": "TGI", "setting": "[2]", "value": 24.2, "unit": "µM"},
      {"measurement": "GI50", "setting": "[3]", "value": 21.4, "unit": "µM"},
      {"measurement": "TGI", "setting": "[3]", "value": 53.6, "unit": "µM"},
      {"measurement": "GI50", "setting": "[4]", "value": 17.3, "unit": "µM"},
      {"measurement": "TGI", "setting": "[4]", "value": 33.8, "unit": "µM"},
      {"measurement": "GI50", "setting": "[5]", "value": 16.7, "unit": "µM"},
      {"measurement": "TGI", "setting": "[5]", "value": 36.8, "unit": "µM"},
      {"measurement": "GI50", "setting": "[6]", "value": 23.7, "unit": "µM"},
      {"measurement": "TGI", "setting": "[6]", "value": 50.1, "unit": "µM"},
      {"measurement": "GI50", "setting": "[7]", "value": 32, "unit": "µM"},
      {"measurement": "TGI", "setting": "[7]", "value": "> 100", "unit": "µM"},
      {"measurement": "GI50", "setting": "[8]", "value": 16, "unit": "µM"},
      {"measurement": "TGI", "setting": "[8]", "value": 33.1, "unit": "µM"},
      {"measurement": "GI50", "setting": "[9]", "value": 20.1, "unit": "µM"},
      {"measurement": "TGI", "setting": "[9]", "value": 47.3, "unit": "µM"},
      {"measurement": "GI50", "setting": "[10]", "value": 9.05, "unit": "µM"},
      {"measurement": "TGI", "setting": "[10]", "value": 24.5, "unit": "µM"},
      {"measurement": "GI50", "setting": "[11]", "value": 12.2, "unit": "µM"},
      {"measurement": "TGI", "setting": "[11]", "value": 37, "unit": "µM"},
      {"measurement": "GI50", "setting": "[12]", "value": 9.98, "unit": "µM"},
      {"measurement": "TGI", "setting": "[12]", "value": 38.1, "unit": "µM"},
      {"measurement": "GI50", "setting": "[13]", "value": 20.3, "unit": "µM"},
      {"measurement": "TGI", "setting": "[13]", "value": 48.8, "unit": "µM"},
      {"measurement": "GI50", "setting": "[14]", "value": 26.2, "unit": "µM"},
      {"measurement": "TGI", "setting": "[14]", "value": 65.4, "unit": "µM"},
      {"measurement": "GI50", "setting": "[15]", "value": 33.8, "unit": "µM"},
      {"measurement": "TGI", "setting": "[15]", "value": "> 100", "unit": "µM"},
      {"measurement": "GI50", "setting": "[16]", "value": 20.5, "unit": "µM"},
      {"measurement": "TGI", "setting": "[16]", "value": 59, "unit": "µM"},
      {"measurement": "GI50", "setting": "[17]", "value": 3.37, "unit": "µM"},
      {"measurement": "TGI", "setting": "[17]", "value": "> 100", "unit": "µM"},
      {"measurement": "GI50", "setting": "[18]", "value": 13.8, "unit": "µM"},
      {"measurement": "TGI", "setting": "[18]", "value": 40.5, "unit": "µM"},
      {"measurement": "GI50", "setting": "[19]", "value": 15.9, "unit": "µM"},
      {"measurement": "TGI", "setting": "[19]", "value": 32.1, "unit": "µM"},
      {"measurement": "GI50", "setting": "[20]", "value": 9.75, "unit": "µM"},
      {"measurement": "TGI", "setting": "[20]", "value": 27.5, "unit": "µM"},
      {"measurement": "GI50", "setting": "[21]", "value": 20.5, "unit": "µM"},
      {"measurement": "TGI", "setting": "[21]", "value": 46.7, "unit": "µM"},
      {"measurement": "GI50", "setting": "[22]", "value": 11.9, "unit": "µM"},
      {"measurement": "TGI", "setting": "[22]", "value": 44.5, "unit": "µM"},
      {"measurement": "GI50", "setting": "[23]", "value": 3.53, "unit": "µM"},
      {"measurement": "TGI", "setting": "[23]", "value": "> 100", "unit": "µM"},
      {"measurement": "GI50", "setting": "[24]", "value": 20.4, "unit": "µM"},
      {"measurement": "TGI", "setting": "[24]", "value": 46.6, "unit": "µM"},
      {"measurement": "GI50", "setting": "[25]", "value": 18.8, "unit": "µM"},
      {"measurement": "TGI", "setting": "[25]", "value": 42.8, "unit": "µM"},
      {"measurement": "GI50", "setting": "[26]", "value": 19.2, "unit": "µM"},
      {"measurement": "TGI", "setting": "[26]", "value": 41.3, "unit": "µM"},
      {"measurement": "GI50", "setting": "[27]", "value": 30.1, "unit": "µM"},
      {"measurement": "TGI", "setting": "[27]", "value": "> 100", "unit": "µM"},
      {"measurement": "GI50", "setting": "[28]", "value": 15.9, "unit": "µM"},
      {"measurement": "TGI", "setting": "[28]", "value": 41.5, "unit": "µM"},
      {"measurement": "GI50", "setting": "[29]", "value": 18.9, "unit": "µM"},
      {"measurement": "TGI", "setting": "[29]", "value": 39, "unit": "µM"},
      {"measurement": "GI50", "setting": "[30]", "value": 25.5, "unit": "µM"},
      {"measurement": "TGI", "setting": "[30]", "value": 78.5, "unit": "µM"},
      {"measurement": "GI50", "setting": "[31]", "value": 21.3, "unit": "µM"},
      {"measurement": "TGI", "setting": "[31]", "value": 55.9, "unit": "µM"},
      {"measurement": "GI50", "setting": "[32]", "value": 6.1, "unit": "µM"},
      {"measurement": "TGI", "setting": "[32]", "value": 21.9, "unit": "µM"},
      {"measurement": "GI50", "setting": "[33]", "value": 3.03, "unit": "µM"},
      {"measurement": "TGI", "setting": "[33]", "value": 6.31, "unit": "µM"},
      {"measurement": "GI50", "setting": "[34]", "value": 12.7, "unit": "µM"},
      {"measurement": "TGI", "setting": "[34]", "value": 29.9, "unit": "µM"},
      {"measurement": "GI50", "setting": "[35]", "value": 19, "unit": "µM"},
      {"measurement": "TGI", "setting": "[35]", "value": 41.1, "unit": "µM"},
      {"measurement": "GI50", "setting": "[36]", "value": 20.4, "unit": "µM"},
      {"measurement": "TGI", "setting": "[36]", "value": 53.4, "unit": "µM"},
      {"measurement": "GI50", "setting": "[37]", "value": 18.9, "unit": "µM"},
      {"measurement": "TGI", "setting": "[37]", "value": 37.8, "unit": "µM"},
      {"measurement": "GI50", "setting": "[38]", "value": 24.4, "unit": "µM"},
      {"measurement": "TGI", "setting": "[38]", "value": 70.9, "unit": "µM"},
      {"measurement": "GI50", "setting": "[39]", "value": 34, "unit": "µM"},
      {"measurement": "TGI", "setting": "[39]", "value": 73.1, "unit": "µM"},
      {"measurement": "GI50", "setting": "[40]", "value": 17.9, "unit": "µM"},
      {"measurement": "TGI", "setting": "[40]", "value": 39, "unit": "µM"},
      {"measurement": "GI50", "setting": "[41]", "value": 20.4, "unit": "µM"},
      {"measurement": "TGI", "setting": "[41]", "value": 43.2, "unit": "µM"},
      {"measurement": "GI50", "setting": "[42]", "value": 21.5, "unit": "µM"},
      {"measurement": "TGI", "setting": "[42]", "value": 75.3, "unit": "µM"},
      {"measurement": "GI50", "setting": "[43]", "value": 22.2, "unit": "µM"},
      {"measurement": "TGI", "setting": "[43]", "value": 44.1, "unit": "µM"},
      {"measurement": "GI50", "setting": "[44]", "value": 1.88, "unit": "µM"},
      {"measurement": "TGI", "setting": "[44]", "value": "> 100", "unit": "µM"},
      {"measurement": "GI50", "setting": "[45]", "value": 9.36, "unit": "µM"},
      {"measurement": "TGI", "setting": "[45]", "value": "> 100", "unit": "µM"},
      {"measurement": "GI50", "setting": "[46]", "value": 18.9, "unit": "µM"},
      {"measurement": "TGI", "setting": "[46]", "value": 37.4, "unit": "µM"},
      {"measurement": "GI50", "setting": "[47]", "value": 13.2, "unit": "µM"},
      {"measurement": "TGI", "setting": "[47]", "value": 31.3, "unit": "µM"},
      {"measurement": "GI50", "setting": "[48]", "value": 15, "unit": "µM"},
      {"measurement": "TGI", "setting": "[48]", "value": 30.3, "unit": "µM"},
      {"measurement": "GI50", "setting": "[49]", "value": 29.1, "unit": "µM"},
      {"measurement": "TGI", "setting": "[49]", "value": 94.5, "unit": "µM"}
    ]}
  ]
}
